Assay type in all cases: cell-based
For assay [1], the target named is T1, human V2R (Homo sapiens, UniProt P30518).
T1 construct: The human vasopressin receptor isoform 2 (V2R) cDNA cloned in pUC18 was recloned into a pEF2 vector to prepare pEFhV2R; expressed in transfected cells; host or cells: CHO cells, transient transfection with FuGENE6, then frozen
Briefly: Detection of AVP and V2R antagonist by desensitization (calcium-containing medium, addition of AVP, then forskolin). The source says: This method utilizes the desensitization of the cAMP dependent calcium channel to detect the activity of a V2R antagonist. […] In this state, the addition of forskolin that activates adenylate cyclase forms cAMP, which in turn activates the cAMP dependent calcium channel (e.g., CNG calcium). Thus, the calcium sensitive protein emits luminescence. […] In this state, the subsequent addition of […] desensitizes the once activated cAMP dependent calcium channel, which is no longer activated by the addition of forskolin.
1 ml (3×10^6 cells/ml) of the frozen cells prepared in 1 was thawed in a warm bath and suspended in 10 mL of a washing buffer. The suspension was centrifuged at 1000 rpm for 5 minutes. 12 mL of a culture buffer was added to the obtained precipitate, and 6 μL of 4 mM ViviRen was added thereto. The mixture was seeded at 50 μL/well into a 96-well plate. […] Subsequently, 10^−4 M forskolin was further added thereto at 50 μL/well, and the amount of luminescence was measured using a luminometer (FIG. 16).

For assay [2], the target named is T2, human GLP-1 receptor (Homo sapiens, UniProt P43220, L260F).
T2 construct: The human GLP-1 receptor (GLP-1R) cDNA cloned in pUC18 was recloned into a pCIneo vector to prepare pCIneoGLP-1R; expressed in transfected cells; host or cells: CHO cell lines, transient transfection with FuGENE6, then frozen
T2 sequence (P43220 24-463 L260F): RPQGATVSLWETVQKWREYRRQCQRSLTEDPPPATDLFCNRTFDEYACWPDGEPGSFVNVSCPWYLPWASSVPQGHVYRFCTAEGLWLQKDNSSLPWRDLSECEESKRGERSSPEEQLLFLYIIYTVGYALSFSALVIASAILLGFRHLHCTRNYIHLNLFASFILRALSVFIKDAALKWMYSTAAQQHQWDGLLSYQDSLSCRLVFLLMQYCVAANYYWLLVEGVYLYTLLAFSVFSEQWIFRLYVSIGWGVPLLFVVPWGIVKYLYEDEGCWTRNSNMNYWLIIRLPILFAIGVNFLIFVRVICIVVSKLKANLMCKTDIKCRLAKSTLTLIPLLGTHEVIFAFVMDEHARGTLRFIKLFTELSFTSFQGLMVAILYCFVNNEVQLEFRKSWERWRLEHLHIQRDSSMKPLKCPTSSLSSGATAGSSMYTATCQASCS
In words: Aequorin luminescence in frozen CHO cell lines expressing human GLP-1 receptor, modified CNG channel and modified aequorin. The note with it: even at a concentration 1 million times higher compared with the active forms of GLP-1; FIG. 24. On the procedure: 1 ml (3×10^6 cells/ml) of the frozen cells prepared in 1 was thawed in a warm bath and suspended in 10 mL of a washing buffer.
1 ml (3×10^6 cells/ml) of the frozen cells prepared in 1 was thawed in a warm bath and suspended in 10 mL of a washing buffer. The suspension was centrifuged at 1000 rpm for 5 minutes. 12 mL of a culture buffer was added to the obtained precipitate, and 6 μL of 4 mM ViviRen was added thereto.

Assay [3] addresses T2, human GLP-1 receptor. Briefly: GLP-1 antagonist activity in CHO cells expressing human GLP-1 receptor, GLP-1 added after culture. The note with it: 3 hours culture, then 10^-11 M GLP-1; FIG. 27. On the procedure: Next, the activity of a GLP-1 antagonist was measured. 1 ml (3×10^6 cells/ml) of the frozen cells prepared in 1 was thawed in a warm bath and suspended in 10 mL of a washing buffer. The suspension was centrifuged at 1000 rpm for 5 minutes. 12 mL of a culture buffer was added to the obtained precipitate, and 6 μL of 4 mM ViviRen was added thereto. The mixture was seeded at 90 μL/well into a 96-well plate.
Exendin-4 (9-39) was added thereto at 10 μL/well, and the cells were cultured for 3 hours. 10^−11 M GLP-1 was added thereto at 10 μL/well, and the amount of luminescence was measured using a luminometer.

T1 sequence (P30518 1-309 isoform P30518-2): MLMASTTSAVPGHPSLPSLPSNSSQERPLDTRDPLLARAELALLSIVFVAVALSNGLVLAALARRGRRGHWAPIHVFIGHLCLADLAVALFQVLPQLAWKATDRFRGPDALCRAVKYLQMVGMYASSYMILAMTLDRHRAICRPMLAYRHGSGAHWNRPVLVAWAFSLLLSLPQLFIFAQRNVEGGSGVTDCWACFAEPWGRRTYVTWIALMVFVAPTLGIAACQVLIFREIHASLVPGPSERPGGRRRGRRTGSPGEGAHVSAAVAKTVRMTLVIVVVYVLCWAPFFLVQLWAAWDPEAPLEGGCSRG

For the compound `Cc1ccccc1C(=O)Nc1ccc(C(=O)N2CCCC(O)c3cc(Cl)ccc32)c(C)c1` (stereo not drawn) [OPC-41061], in assay [1] (10^-7 M AVP, then 10^-4 M forskolin, FIG. 16), the “luminescence of forskolin after antagonist and AVP” value was “the luminescence of forskolin was detected in a concentration dependent manner”. Also, the “inhibition of the action of added AVP (amount of luminescence)” value in assay [1] (cells cultured 3 hours with compound in calcium-containing medium, then 10^-7 M AVP, FIG. 14) is “inhibited the action of added AVP in a concentration dependent manner”.
As for GIP: incretin acting on other receptors, in assay [2], the “reactivity of the kit” value is “hardly reacted”.
For the compound GLP-1 (9-36 amide), the “reactivity of the kit” value in assay [2] was “hardly reacted”.
As for “GLP-2: incretin acting on other receptors”, the “reactivity of the kit” value in assay [2] is given as “hardly reacted”.
Consider “exendin-4 (9-39): GLP-1 receptor antagonist”, for which the “inhibition of the agonistic action of added GLP-1” value in assay [3] is “inhibited the agonistic action of added GLP-1 in a concentration dependent manner”.
